Test results reported in paper PMC6764862 (Xenobiotica; the fate of foreign compounds in biological …, 2019).
Where two headings read alike, the source gives them in different places.

What was measured:
human AhR (hAhR) = target: T1, human AhR (hAhR) (Homo sapiens, UniProt P35869); assay: AhR-dependent pXRE-SV40-Luc luciferase reporter in HepG2 cells; assay type: cell-based; conditions: for Relative effect potency (REP) HepG2: EC50-based, relative to TCDD, human system; for maximum response, luciferase activity: concentration-response
T1 sequence (P35869 11-848): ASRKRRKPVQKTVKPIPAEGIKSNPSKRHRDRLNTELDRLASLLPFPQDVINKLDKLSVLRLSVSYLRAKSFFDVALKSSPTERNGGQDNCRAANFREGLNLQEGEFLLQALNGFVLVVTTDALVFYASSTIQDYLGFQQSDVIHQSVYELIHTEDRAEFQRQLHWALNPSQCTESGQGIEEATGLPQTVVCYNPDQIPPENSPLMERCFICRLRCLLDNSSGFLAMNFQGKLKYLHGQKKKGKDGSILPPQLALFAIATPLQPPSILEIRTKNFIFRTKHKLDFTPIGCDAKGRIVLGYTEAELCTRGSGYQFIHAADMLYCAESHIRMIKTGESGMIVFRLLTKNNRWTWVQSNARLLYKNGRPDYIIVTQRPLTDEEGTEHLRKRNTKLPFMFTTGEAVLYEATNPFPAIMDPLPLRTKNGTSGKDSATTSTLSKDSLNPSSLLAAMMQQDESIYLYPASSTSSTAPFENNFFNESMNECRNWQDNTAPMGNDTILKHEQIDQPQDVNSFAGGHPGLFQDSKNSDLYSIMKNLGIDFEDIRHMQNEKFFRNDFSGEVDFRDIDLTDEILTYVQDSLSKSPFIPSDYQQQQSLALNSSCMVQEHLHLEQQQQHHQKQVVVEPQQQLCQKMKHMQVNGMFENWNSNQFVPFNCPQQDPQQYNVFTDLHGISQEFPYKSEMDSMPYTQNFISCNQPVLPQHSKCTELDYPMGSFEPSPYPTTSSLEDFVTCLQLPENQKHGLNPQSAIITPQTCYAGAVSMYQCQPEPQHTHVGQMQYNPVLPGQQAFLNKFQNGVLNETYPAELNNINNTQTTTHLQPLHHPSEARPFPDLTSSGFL

mouse AhR (mAhR) [1] = target: T2, mouse AhR (mAhR) (Mus musculus, UniProt P30561); conditions: for Relative effect potency (REP) Hepa1c1c7: EC50-based, relative to TCDD, murine system; for maximum response, luciferase activity: concentration-response
T2 sequence (P30561 10-848): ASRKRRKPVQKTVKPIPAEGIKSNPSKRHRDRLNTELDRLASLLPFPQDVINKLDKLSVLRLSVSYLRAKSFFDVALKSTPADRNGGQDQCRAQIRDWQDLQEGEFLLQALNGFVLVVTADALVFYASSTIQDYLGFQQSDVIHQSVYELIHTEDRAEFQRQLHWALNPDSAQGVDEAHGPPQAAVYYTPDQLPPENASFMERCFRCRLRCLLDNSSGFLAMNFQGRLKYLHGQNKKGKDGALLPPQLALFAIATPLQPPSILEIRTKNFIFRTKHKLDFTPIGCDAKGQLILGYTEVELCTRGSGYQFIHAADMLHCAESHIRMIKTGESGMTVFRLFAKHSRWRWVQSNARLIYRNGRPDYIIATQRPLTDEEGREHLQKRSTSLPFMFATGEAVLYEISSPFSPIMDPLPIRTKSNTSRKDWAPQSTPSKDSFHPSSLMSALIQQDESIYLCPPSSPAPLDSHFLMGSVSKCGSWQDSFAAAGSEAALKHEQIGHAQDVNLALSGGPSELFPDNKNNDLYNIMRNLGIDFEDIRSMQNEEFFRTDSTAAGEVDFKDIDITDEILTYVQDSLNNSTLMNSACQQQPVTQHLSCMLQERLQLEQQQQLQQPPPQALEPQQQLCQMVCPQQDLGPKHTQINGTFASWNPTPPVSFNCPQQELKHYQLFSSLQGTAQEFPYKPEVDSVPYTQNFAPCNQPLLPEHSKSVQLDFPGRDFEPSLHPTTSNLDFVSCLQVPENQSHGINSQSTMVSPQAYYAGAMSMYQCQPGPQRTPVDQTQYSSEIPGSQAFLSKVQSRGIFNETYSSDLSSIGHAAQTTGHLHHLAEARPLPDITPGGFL

mouse AhR (mAhR) [2] = conditions: for REP ratio Hepa1c1c7/HepG2: mouse REP over human REP
Cyp1a1 (AhR target gene) [3] = assay: Cyp1a1 mRNA induction in primary mouse hepatocytes; assay type: cell-based; conditions: primary mouse hepatocytes
EGFR = conditions: up to; highest potency of all congeners tested; ref Hardesty et al., 2018; cited from earlier work
CYP1A1 (AhR target gene) [4] = assay: CYP1A1 mRNA induction in primary human hepatocytes; assay type: cell-based; conditions: primary human hepatocytes
mouse AhR (mAhR) [5] = target: T2, mouse AhR (mAhR); assay: in vitro; conditions: hepa1c1c7 cells
[6] = system: Cyp1a1 mRNA (AhR target gene); assay: Cyp1a1 mRNA induction in primary mouse hepatocytes; assay type: cell-based; conditions: male, C57BL/6, mouse
[7] = system: CYP1A1 mRNA (AhR target gene); assay: CYP1A1 mRNA induction in primary human hepatocytes; assay type: cell-based; conditions: human
[8] = read-out: EC50 for AhR luciferase reporter activity, HepG2 cells, 24 h treatment

SMILES	Relative effect potency (REP) HepG2 (human AhR (hAhR))	EC50 (human AhR (hAhR); [8])	Relative effect potency (REP) Hepa1c1c7 (mouse AhR (mAhR) [1])	REP ratio Hepa1c1c7/HepG2 (mouse AhR (mAhR) [2])	maximum response, luciferase activity (human AhR (hAhR); HepG2 cells)	WHO 2005 TEF fold lower than the human REP (human AhR (hAhR); TEF vs HepG2 REP of this study)	maximum response, luciferase activity (mouse AhR (mAhR) [1]; Hepa1c1c7 cells)	fold higher EC50 in Hepa1c1c7 cells compared to HepG2 cells (mouse AhR (mAhR) [2]; luciferase reporter)	maximal induction of Cyp1a1 mRNA (Cyp1a1 (AhR target gene) [3])	luciferase activity increase (human AhR (hAhR); HepG2 cells, 10 μM, 24 h, positive controls)	WHO 2005 TEF fold higher than the human REP (human AhR (hAhR); TEF vs HepG2 REP of this study)	IC50 for EGFR inhibition (EGFR)	luciferase activity increase (mouse AhR (mAhR) [1]; Hepa1c1c7 cells, 10 μM, 24 h, positive controls)	fold more potent (lower EC50) in Hepa1c1c7 than in HepG2, luciferase reporter (mouse AhR (mAhR) [2]; mAhR vs hAhR, cell lines)	maximal induction of CYP1A1 mRNA (CYP1A1 (AhR target gene) [4])	EC50 (CYP1A1 (AhR target gene) [4]; read-out: EC50 for induction of CYP1A1 mRNA, 24 h)	maximal fold induction at 24 h (mouse AhR (mAhR) [5])	EC50 at 24 h [6]	EC50 (human AhR (hAhR))	EC50 at 24 h [7]
Clc1ccc(-c2ccc(Cl)c(Cl)c2)cc1Cl [PCB 77]	≤ 0.00009	≥ 4000 nM	0.0003	≥ 3.3	–	–	–	–	–	–	–	–	–	–	–	–	–	–	–	–
Clc1ccc(-c2cc(Cl)c(Cl)c(Cl)c2)cc1 [PCB 81]	0.06	6.8 ± 2.7 nM	0.0009	0.015	34.6 fold	200 fold	2.3 fold	approximately 5 fold	–	–	–	–	–	–	–	–	–	–	–	–
Clc1ccc(-c2cc(Cl)c(Cl)c(Cl)c2Cl)cc1 [PCB 114]	≤ 0.00007	≥ 5000 nM	0.00004	≥ 0.5	–	–	–	–	–	–	–	–	–	–	–	–	–	–	–	–
Clc1ccc(-c2cc(Cl)c(Cl)c(Cl)c2)cc1Cl [PCB 126]	0.002	250 ± 150 nM	0.006	3	31.6 fold	–	5.9 fold	–	53.3 fold	42 fold	50 fold	−16.07 ± 0.31 log M	3.7 fold	approximately 53 fold	45.1 fold	195 ± 35 nM	–	–	–	–
Clc1cc(-c2cc(Cl)c(Cl)c(Cl)c2)cc(Cl)c1Cl [PCB 169]	≤ 0.00005	≥ 7000 nM	0.001	≥ 20	–	–	–	–	–	–	> 300 fold	–	–	–	–	–	–	–	–	–
Clc1cc2c(cc1Cl)Oc1cc(Cl)c(Cl)cc1O2 [TCDD, 2,3,7,8-tetrachlorodibenzo-p-dioxin, reference compound]	1	–	–	1	83 fold	–	–	–	–	–	–	–	–	–	–	–	2.2	0.04 ± 0.02 nM	0.4 ± 0.1 nM	0.45 ± 0.34 nM
